Reference: patent publication US20120028921A1, “METHODS AND COMPOSITIONS USING OXIDIZED PHOSPHOLIPIDS” (The Johns Hopkins University, priority 2004, published 2012)
“Also recorded” adds a separate entry of the source.

How the values were obtained:
Erk-1,2 = Erk-1,2 MAP kinase cascade activation, phospho-specific immunoblotting; type: cell-based, human; settings: for effect on OxPAPC-induced Erk-1,2 cascade activation/phosphorylation: UO-126 5 μM, genistein 100 μM, PKC peptide inhibitor 20 μM, BHT preincubated with OxPAPC
Method: (§1) Western immunoblotting. Protein extracts were separated by SDS-PAGE, transferred to polyvinylidene difluoride (PVDF) membranes (30 V for 18 h or 90 V for 2 h), and the membranes were incubated with specific antibodies of interest. Equal protein loadings were verified by reprobing membranes with anti-Erk, anti-Fax, or anti-paxillin antibodies. Immunoreactive proteins were detected with the enhanced chemiluminescent detection system (ECL) according to the manufacturer's directions (New England BioLabs, Beverly, Mass.). The relative intensities of the protein bands were quantified by scanning densitometry using Image Quant 5.2 (Molecular Dynamics, Piscataway, N.J.) software.
(§2) Activation of MAP kinase pathways and characterization of tyrosine phosphorylation. Activation of MAP kinase cascade was by monitored by western immunoblotting techniques using phosphospecific antibodies, which are described in Materials section and detect activated form of protein kinases of the MAP kinase cascade. Analysis of the total protein tyrosine phosphorylation was performed by immunoblotting with phosphotyrosine antibody.

JNK = JNK MAP kinase phosphorylation, immunoblotting; type: cell-based, human
Method: as §1, §2

[1] = test system: human pulmonary endothelial cells (HPAEC); experiment: Transendothelial electrical resistance (TER), ECIS system; type: cell-based; settings: for effect of pretreatment on OxPAPC-induced TER increase: BHT 5 μM 10 min preincubated with OxPAPC, toxin B 100 ng/ml, Y27632 5 μM, 1 hr; for effect on transendothelial electrical resistance (TER): agent alone, phospholipids up to 20 μg/ml; for co-elution with TER-increasing activity in HPLC-MS of fraction 2: reversed phase HPLC fractions tested on TER; for effect of synthetic fragmented phospholipids on TER: prepared by chemical synthesis
Method: Human pulmonary endothelial cells (HPAEC) were cultured and transfected with cDNAs as described previously (Birukov et al., 2002). Lipid oxidation and analysis of oxidation products by positive ion electrospray mass spectrometry (ESI-MS) was performed as described previously (Watson et al., 1997, Leitinger et al. 1999 and, Bochov et al. 2002). Measurements of transendothelial electrical resistance were performed using electrical cell substrate impedance-sensing (ECIS) system as described elsewhere (Garcia et al., 2001 and Birukova et al., 2004). Transient transfections and siRNA-based protein depletion of small GTPases were performed as described elsewhere (Birukov et al. 2002, Birukova et al., 2004 and Birukova et al., 2004a). Rac, Cdc42 and Rho activation assays were performed using assay kits from Upstate Biotechnology (Lake Placid, N.Y.) (Garcia et al., 2001 and Birukova et al., 2004). Subcellular protein fractionation, western blot analyses and densitometric analyses were performed from at least 3 experiments as described (Birukova et al., 2004). Immunofluorescent staining of HPAEC was performed as previously described (Birukov et al., 2002, Birukova et al., 2004). ANOVAs and a post hoc Student-Newman-Keuls test were used to compare the means of two or more different treatment groups. Results were expressed as the mean±SE. Differences between two groups were considered statistically significant with a value of P<0.05.

[2] = test system: protein tyrosine phosphorylation; experiment: Total protein tyrosine phosphorylation, phosphotyrosine immunoblot; type: cell-based, human; settings: for effect on OxPAPC-induced protein tyrosine phosphorylation: genistein 100 μM, BHT preincubated with OxPAPC
Method: as §1, §2

PKA = PKA activation: phospho-PKA substrate immunoblot and in vitro kinase assay of lysates; type: cell-based, human; settings: phospho-PKA substrate immunoblot
Method: (§3) Analysis of PKC and PKA activities. After stimulation with OxPAPC (20 μg/ml, 15 min), HPAEC were lysed, cell lysates were clarified by centrifugation (14000 g, 5 min, +4 C.°), and PKA and PKC activities were measured using in vitro kinase assay kits obtained from Promega Corp. (Madison, Wis.) according to manufacturer protocol. Additionally, OxPAPC-induced PKC and PKA activation in HPAEC cultures was determined by immunoblotting of whole cell lysates with phospho-PKC substrate- and phospho-PKA substrate-specific antibodies that recognize PKA- or PKC-phosphorylated sites in the EC endogenous proteins.

p38 = p38 MAP kinase phosphorylation, immunoblotting; type: cell-based, human; settings: 20 μg/ml
Method: as §1, §2

PKC = PKC activation: phospho-PKC substrate immunoblot and in vitro kinase assay of lysates; type: cell-based, human
Method: as §3

paxillin = experiment: Paxillin Tyr118 phosphorylation, immunoblot; type: cell-based, human; settings: PP-2 5 μM pretreatment
Method: as §1

FAK = FAK Tyr576 phosphorylation, immunoblot; type: cell-based, human; settings: PP-2 5 μM pretreatment
Method: as §1

[3] = test system: human pulmonary endothelial cells (HPAEC); settings: literature (Goggel et al. 2004); cited from earlier work
[4] = HPAEC monolayers, thrombin 50 nM

In the case of `Cc1cc(C(C)(C)C)c(O)c(C(C)(C)C)c1` [BHT, butylated hydroxytoluene], the “effect on OxPAPC-induced Erk-1,2 cascade activation/phosphorylation” value (Erk-1,2) was “same levels of Erk-1,2 activation”, the “effect of preincubation on OxPAPC-induced JNK activation” value (JNK; OxPAPC preincubated with BHT) was “same levels of JNK activation” and the “effect of pretreatment on OxPAPC-induced TER increase” value [1] was “did not affect”. For the same molecule, the “effect on OxPAPC-induced protein tyrosine phosphorylation” value [2] was “did not affect”.

In the case of `CCCCCCCCCCCCCC(=O)OC[C@H](COP(=O)([O-])OCC[N+](C)(C)C)OC(=O)CCCCCCCCCCCCC` [DMPC, dimyristoyl phosphatidyl choline], the “effect on transendothelial electrical resistance (TER)” value (“effect … (TER)” below) [1, 4] was “did not exhibit significant effects”.

In the case of `CCCCC/C=C\C/C=C\C/C=C\C/C=C\CCCC(=O)O[C@H](COC(=O)CCCCCCCCCCCCCCC)COP(=O)([O-])OCC[N+](C)(C)C` [PAPC, 1-palmitoyl-2-arachidomoyl-sn-glycero-3-phosphorylcholine], the “PKA-mediated phosphorylation of endogenous substrates / PKA activation” value (PKA) was “did not induce PKA activation”, the “phosphorylation / activation of p38” value (p38) was “without effect” and the “Erk-1,2 activation” value (Erk-1,2; 20 μg/ml) was “had no effect”. For the same molecule, the “PKC-mediated phosphorylation of endogenous substrates” value (PKC; phospho-PKC substrate immunoblot) was “did not significantly increase”, the “phosphorylation / activation of JNK” value (JNK; 20 μg/ml) was “without effect” and the “effect … (TER)” value [1, 4] was “did not exhibit significant effects”. For the same molecule, the protein tyrosine phosphorylation ([2]; 20 μg/ml) was “without effect”.

For `CCCCC/C=C\CC1C=CC(=O)/C1=C/C1OC1CCCC(=O)O[C@H](COC(=O)CCCCCCCCCCCCCCC)COP(=O)([O-])OCC[N+](C)(C)C` (stereo partly drawn) [PECPC, 1-palmitoyl-2-(epoxycyclopentenone)-sn-glycero-3-phosphorylcholine], the “co-elution with TER-increasing activity in HPLC-MS of fraction 2” value [1] was “co-eluted with the fraction exhibiting major barrier-protective activity; also recorded: co-eluted with TER increasing activity”.

In the case of `CCCCC/C=C\CC1/C(=C\C2OC2CCCC(=O)O[C@H](COC(=O)CCCCCCCCCCCCCCC)COP(=O)([O-])OCC[N+](C)(C)C)C(=O)CC1O` (stereo partly drawn) [PEIPC, 1-palmitoyl-2-(epoxyisoprostane E2)-sn-glycero-3-phosphocholine], the “co-elution with TER-increasing activity in HPLC-MS of fraction 2” value [1] was “co-eluted with TER increasing activity”.

In the case of `CCCCCCCCCCCCCCCC(=O)OC[C@H](COP(=O)([O-])OCC[N+](C)(C)C)OC(=O)CCCC(=O)O` [PGPC], the “effect of synthetic fragmented phospholipids on TER” value (“effect … on TER” below) [1] was “significantly and concentration-dependently decreased TER”.

With `CCCCC/C=C\C/C=C\CCCCCCCC(=O)OC(COC(=O)CCCCCCCCCCCCCCC)COP(=O)([O-])OCC[N+](C)(C)C` (stereo not drawn) [PLPC, palmitoyl-linoleate phosphatidyl choline] the “effect … (TER)” value [1, 4] was “did not exhibit significant effects”.

With `CCCCCCCCCCCCCCCC(=O)OC[C@H](COP(=O)([O-])OCC[N+](C)(C)C)OC(=O)CCCC=O` [POVPC] the “effect … on TER” value [1] was “significantly and concentration-dependently decreased TER”.

In the case of `CC(C)(C)n1nc(-c2ccc(Cl)cc2)c2c(N)ncnc21` [PP-2], the “effect on OxPAPC-induced paxillin phosphorylation” value (paxillin) was “attenuated” and the “effect on OxPAPC-induced FAK phosphorylation” value (FAK) was “attenuated”.

In the case of `CCCCCCCCCCCCC/C=C/[C@@H](O)[C@@H](N)COP(=O)(O)O` [S1P, sphingosine 1-phosphate], the “concentration giving maximal barrier protective effect” value ([1]; HPAEC monolayers) was 1 µM and the “effect … (TER)” value [1, 4] was “rapid concentration-dependent TER increase”.

With `N#CC(=C(/N)Sc1ccccc1N)/C(C#N)=C(/N)Sc1ccccc1N` [UO-126] the “effect on OxPAPC-induced Erk-1,2 cascade activation/phosphorylation” value (Erk-1,2) was “completely abolished”.

For `C[C@@H](N)[C@H]1CC[C@H](C(=O)Nc2ccncc2)CC1` [Y27632], the “effect of pretreatment on OxPAPC-induced TER increase” value [1] was “not”.

For `CN(C)CCCn1cc(C2=C(c3c[nH]c4ccccc34)C(=O)NC2=O)c2ccccc21` [bisindolmaleimide I], the “effect on OxPAPC-induced PKC activity” value (PKC; in vitro kinase assay, preincubation 1 hour) was “attenuated OxPAPC-induced PKC activation to a lesser extent”.

With `O=c1c(-c2ccc(O)cc2)coc2cc(O)cc(O)c12` [genistein] the “effect on OxPAPC-induced Erk-1,2 cascade activation/phosphorylation” value (Erk-1,2) was “attenuated” and the “effect on OxPAPC-induced protein tyrosine phosphorylation” value [2] was “abolished”.

For lysoPC, the “effect … on TER” value [1] was “significantly and concentration-dependently decreased TER”.

For platelet activating factor [PAF], the “barrier effect compared with OxPAPC” value [3] is listed as “does not mimic barrier-protective OxPAPC effects”.

For thrombin, the “effect … (TER)” value [1, 4] was “abrupt decrease in TER” and the “TER recovery time after maximal TER decline” value ([1]; thrombin 50 nM, with or without OxPAPC 20 μg/ml, five experiments) was 115 min.
